According to PubChem BioAssay (NCI):
Where “and” joins values, the source holds several entries; their conditions need not be identical. Identical values can stand only once.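 Values below derive from 48-hour exposures of cells grown in 96-well plates, with endpoints linearly interpolated between the two concentrations bracketing the appropriate inhibition level. GI50: concentration for 50% inhibition of growth. TGI is the concentration that stops growth completely.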

What was measured:
Assay in all cases: NCI tumour cell line growth inhibition, 48 h
HCT-15 colon = system: HCT-15 colon
KM12 colon = system: KM12 colon
SK-OV-3 ovarian = system: SK-OV-3 ovarian
COLO 205 colon = system: COLO 205 colon
HCT-116 colon = system: HCT-116 colon
EKVX NSCLC = system: EKVX NSCLC
HOP-92 NSCLC = system: HOP-92 NSCLC
OVCAR-8 ovarian = system: OVCAR-8 ovarian
HOP-62 NSCLC = system: HOP-62 NSCLC
RXF 393 renal = system: RXF 393 renal

SMILES	TGI (HCT-15 colon)	TGI (KM12 colon)	TGI (SK-OV-3 ovarian)	TGI (COLO 205 colon)	TGI (HCT-116 colon)	TGI (EKVX NSCLC)	TGI (HOP-92 NSCLC)	TGI (OVCAR-8 ovarian)	GI50 (HCT-15 colon)	GI50 (HOP-62 NSCLC)	TGI (HOP-62 NSCLC)	GI50 (KM12 colon)	GI50 (SK-OV-3 ovarian)	GI50 (COLO 205 colon)	GI50 (RXF 393 renal)	TGI (RXF 393 renal)	GI50 (HCT-116 colon)	GI50 (HOP-92 NSCLC)	GI50 (OVCAR-8 ovarian)	GI50 (EKVX NSCLC)
N/N=C(\Cc1ccccc1)NN=C(N)N	> 100 µM	> 100 µM	> 100 µM	> 100 µM	> 100 µM	> 100 µM	> 100 µM	> 100 µM												
COC(=O)[C@@H]1CCCN1C(=O)[C@@H]1CCCN1C(=O)[C@@H](Cc1c[nH]c2ccccc12)NC(=S)Nc1cc(C(F)(F)F)cc(C(F)(F)F)c1	> 100 µM	> 100 µM	> 100 µM	5.5 µM	> 100 µM		5.26 µM	> 100 µM	4.87 µM	8.35 µM	> 100 µM	5.45 µM	47.2 µM	2.41 µM	2.14 µM	5.89 µM	4.03 µM	1.46 µM	5.83 µM	
Nc1nc(Nc2cccc(F)c2)nc2ccccc12	47 µM	42.4 µM	> 100 µM	34 µM	46.4 µM		38.5 µM	> 100 µM	18.4 µM	17.1 µM	38.5 µM	18.1 µM	35.3 µM	15.9 µM	16.9 µM	45.3 µM	18.1 µM	13.8 µM	31.9 µM	
C[C@H](CS(C)(=O)=O)Nc1ncc2cc(Oc3ccc(F)cc3F)c(=O)n(C)c2n1	> 25 µM	> 25 µM	> 25 µM	> 25 µM	> 25 µM		> 25 µM	> 25 µM	> 25 µM	> 25 µM	> 25 µM	> 25 µM	> 25 µM	> 25 µM	> 25 µM	> 25 µM	> 25 µM	> 10.4 µM	> 25 µM	
Cc1cccc(C)c1NC(=O)CCCC(=O)C1CCC/C1=N\NC(=O)C(=O)NN (stereo not given)	> 100 µM	> 100 µM	> 100 µM	> 100 µM	> 100 µM	> 100 µM		> 100 µM								> 100 µM				
CCC1CN2CCc3cc(OC)c(OC)cc3C2CC1CC1c2cc(OC)c(OC)cc2CCN1C(=O)CNC(=O)OC(C)(C)C (stereo not given)	68.7 µM	11.4 µM	64.7 µM	12.7 µM		32.9 µM		> 100 µM								51.2 µM				
Fc1ccc(Nc2nc(NCCNc3ccnc4cc(Cl)ccc34)nc(N3CCOCC3)n2)cc1	6.56 µM	18.7 µM	24.6 µM	3.26 µM	17 µM		6.88 µM	40.6 µM	2.46 µM	13.4 µM	26.5 µM	5.44 µM	11.9 µM	1.71 µM	1.89 µM	6.76 µM	4.82 µM	1.03 µM	11.6 µM	
Cc1c2ccncc2c(C)c2c1[nH]c1ccc(OC(C)(C)C)cc12			18.8 µM	3.12 µM	3.36 µM	36.2 µM	25.1 µM	9.75 µM			9.74 µM									
COc1ccc2c(C(=O)O)cc3cc(OC)c(OC)cc3c2c1	> 100 µM	> 100 µM	> 100 µM	> 100 µM	> 100 µM	> 100 µM	> 100 µM	> 100 µM								> 100 µM				
COC(=O)C(=O)C(C(=O)C=C(C)C)C(=O)C(=O)Nc1cccc(C(C)=O)c1 (stereo not given)	> 100 µM	> 100 µM	> 100 µM	> 100 µM	> 100 µM	> 100 µM		> 100 µM			> 100 µM					> 100 µM				
COc1cc(Oc2c(O)c(C)c(OC)c(C(C)=O)c2O)c(C(C)=O)c(O)c1C	> 100 µM	> 100 µM	> 100 µM	> 100 µM	> 100 µM		> 100 µM	> 100 µM			83.1 µM					> 100 µM				
CN(C)CCNC(=O)c1ccc(Cl)c2c(Nc3ccc(S(N)(=O)=O)cc3)c3ccccc3nc12	15.5 µM	5.12 µM	10.1 µM	2.15 µM	1.71 µM	17.7 µM	8.54 µM	6.84 µM			21.6 µM									
Cc1cn2c(/C=N/N/C(N)=N\N)c(-c3ccc(Cl)c([N+](=O)[O-])c3)nc2s1	2.04 µM	2.29 µM	2.78 µM			15.6 µM	13.3 µM		0.968 µM	4.98 µM	15.9 µM	1.02 µM	1.29 µM					2.55 µM		3.99 µM
COc1cnc2c(c1)C(=O)c1c-2n(CCCN2CCCC2)c(=O)c2cc(Cl)ccc12	10.3 µM	10.3 µM	10.5 µM	8.22 µM		11.3 µM	12.1 µM	12.2 µM	1.73 µM			2.11 µM	1.47 µM	0.161 µM	0.705 µM	5.82 µM		2.2 µM	0.813 µM	2.18 µM
CC(C)=CC(=O)CC(=O)C(=O)Nc1ccc(Cl)c(Cl)c1	> 100 µM	> 100 µM	> 100 µM	> 100 µM	> 100 µM	> 100 µM		> 100 µM			> 100 µM					> 100 µM				
CCCCCc1c(C)[nH]c(/C=C2\N=C(c3ccc[nH]3)C=C2Oc2ccc(Cl)cc2)c1C	1.46 µM and 1.05 µM	1.5 µM and 0.614 µM	17.6 µM	1.77 µM and 1.18 µM	1.22 µM and 1.18 µM		0.314 µM and 0.361 µM	1.98 µM	0.0779 µM and 0.0287 µM	0.148 µM and 0.187 µM	14.6 µM	0.04 µM and 0.0133 µM	0.308 µM and 0.277 µM	0.129 µM and 0.0289 µM	0.0678 µM and 0.123 µM	0.672 µM and 0.722 µM	0.0392 µM and 0.0147 µM	0.0417 µM and 0.0176 µM	0.16 µM and 0.0296 µM	
CN(C)c1ccc(C(N)=O)cn1	> 100 µM	> 100 µM		> 100 µM	> 100 µM	> 100 µM		> 100 µM			> 100 µM					> 100 µM				
COc1ccc2c(c1)nc(N)c1c3cccnc3cn21	33.7 µM	> 41.2 µM	> 79.3 µM	0.668 µM	> 36.7 µM	> 100 µM		> 54.5 µM	0.0456 µM	0.273 µM	> 78.9 µM	0.0473 µM	0.0508 µM	0.0452 µM	0.0224 µM	0.0777 µM	0.0471 µM		0.0898 µM	2.91 µM
C=C(C)[C@@H]1CC[C@@]2(C)[C@H]1[C@H]1CCC3[C@@]4(C)CC[C@H](O)C(C)(C)[C@@H]4CC[C@@]3(C)[C@]1(C)C[C@@H]2O (stereo not given in full)	> 100 µM	> 100 µM			> 100 µM	> 100 µM	> 100 µM	> 100 µM			> 100 µM					> 100 µM				
C/C1=C\CC[C@@](C)(O)[C@@H]2CC3[C@@H](OC(=O)C34CC4)[C@@H](O2)[C@H](C)CCC1 (stereo not given in full)	58 µM	62.2 µM	> 100 µM	63.6 µM	30.1 µM		> 100 µM	38.1 µM	23.7 µM			21.6 µM	55 µM	24.2 µM			16.5 µM	38.9 µM	18.8 µM	
CS(=O)(=O)Nc1cc(-c2ccc3ncnc(Nc4ccc5c(cnn5Cc5ccc(F)cc5)c4)c3c2)cnc1Cl	21.3 µM	9.72 µM	5.85 µM	6.02 µM	21.7 µM	18.4 µM		> 100 µM	3.21 µM	1.53 µM	41.4 µM	2.93 µM	1.54 µM	1.96 µM	0.38 µM	2.26 µM	2.92 µM		3.02 µM	2.21 µM
CCOc1ccc(NC(=O)CC2SC(N)=NC2=O)cc1 (stereo not given)		> 100 µM		> 100 µM	> 100 µM	> 100 µM	> 100 µM	> 100 µM			> 100 µM					> 100 µM				
CCOC(=O)/C(C#N)=C1\N[C@H](C(=O)OCC)CO1	> 100 µM	> 100 µM		> 100 µM	> 100 µM	> 100 µM		> 100 µM			> 100 µM					> 100 µM				
COC(=O)C(Cc1nc2ccc(Cl)cc2[nH]c1=O)C(=O)C(=O)Nc1ccccc1[N+](=O)[O-] (stereo not given)	> 100 µM	> 100 µM	> 100 µM	> 100 µM	> 100 µM	> 100 µM		> 100 µM			> 100 µM					> 100 µM				
Cc1cc(N2CCCC2)nc(N(CCCNc2ccnc3cc(Cl)ccc23)Cc2ccc3c(c2)OCO3)n1	5.82 µM	11 µM	20.3 µM	3 µM	3.3 µM	> 100 µM	2.96 µM	5.41 µM	0.805 µM	1.83 µM	10.2 µM	2.73 µM	4.98 µM	1.39 µM			0.511 µM	0.0237 µM	1.8 µM	3.16 µM
Nc1nc(OCc2ccccc2)nc2[nH]ncc12	> 100 µM	34.5 µM	49.8 µM	40.4 µM	39 µM	> 100 µM	> 100 µM	> 100 µM	30.9 µM	19.3 µM	37.8 µM	16.2 µM	18.6 µM	18.5 µM			19.7 µM	> 100 µM	> 100 µM	38.6 µM
